Measurements as given in DBAASP.
Converted amounts (≈) assume the structure as drawn. One block for each molecule: values may come before it.

Tests used:
Assay in all cases: ≥ marks a high value that may be exact or a test limit, other limits are often not marked, values filed in µg/mL are converted to µM
[1] = system: Staphylococcus epidermidis ATCC 12228
Escherichia coli UB1005 = system: Escherichia coli UB1005
Escherichia coli K88 = system: Escherichia coli K88
[2] = system: Salmonella enterica subsp. enterica serovar Typhimurium C77-31
Escherichia coli K99 = system: Escherichia coli K99
[3] = system: Pseudomonas aeruginosa ATCC 27853
[4] = system: Candida albicans CGMCC 2.2086
[5] = system: Candida tropicalis CGMCC 2.1975
[6] = system: Salmonella enterica subsp. enterica serovar Pullorum ATCC 7913
[7] = system: Salmonella enterica subsp. enterica serovar Typhimurium ATCC 14028
[8] = system: Candida parapsilosis CGMCC 2.3989
[9] = system: Staphylococcus aureus ATCC 43300
[10] = system: Staphylococcus aureus ATCC 25923
Escherichia coli 078 = system: Escherichia coli 078
[11] = system: Aeromonas salmonicida 97-4
[12] = system: Salmonella enterica subsp. enterica serovar Typhimurium ATCC 14028s
[13] = system: Aeromonas salmonicida 99-1
[14] = system: Escherichia coli CGSC 4908
[15] = system: Staphylococcus epidermidis C621
Candida albicans C627 = system: Candida albicans C627
[16] = system: Staphylococcus aureus C623
Escherichia coli DC2 = system: Escherichia coli DC2
[17] = system: Pseudomonas aeruginosa Z61
[18] = system: Salmonella enterica serovar typhimurium MS7953s
[19] = system: Pseudomonas aeruginosa K799
Escherichia coli C600 = system: Escherichia coli C600
[20] = system: Bacillus subtilis VKM B-501
[21] = system: Staphylococcus aureus 209P
[22] = system: Lactococcus lactis MG1363
Escherichia coli INV-a = system: Escherichia coli INV-a
[23] = system: Staphylococcus pseudintermedius
Pseudomonas aeruginosa = system: Pseudomonas aeruginosa
[24] = system: Staphylococcus aureus ATCC 29213
[25] = system: Pseudomonas aeruginosa CCARM 2002
[26] = system: Staphylococcus aureus KCTC 1621
[27] = system: Pseudomonas aeruginosa KCTC 2004
[28] = system: Acinetobacter baumannii KCTC 2508
[29] = system: Acinetobacter baumannii CCARM 12035
[30] = system: Escherichia coli KCTC 1682
[31] = system: Escherichia coli CCARM 1229
[32] = system: Staphylococcus aureus CCARM 3126
[33] = system: Salmonella typhimurium CCARM 8007
[34] = system: Salmonella typhimurium KCTC 1926
[35] = system: Staphylococcus epidermidis KCTC 1917
[36] = system: Bacillus subtilis KCTC 3068

- MIC [1]: 8 µM (≈ 10.6 µg/mL)
- MIC (Escherichia coli UB1005): 4 µM (≈ 5.31 µg/mL)
- MIC (Escherichia coli K88): 2 µM (≈ 2.66 µg/mL)
- MIC [2]: 8 µM (≈ 10.6 µg/mL)
- MIC (Escherichia coli K99): 2 µM (≈ 2.66 µg/mL)
- MIC [3]: 16 µM (≈ 21.2 µg/mL)
- MIC [4]: ≥ 128 µM
- MIC [5]: 16 µM (≈ 21.2 µg/mL)
- MIC [6]: 4 µM (≈ 5.31 µg/mL)
- MIC [7]: 4 µM (≈ 5.31 µg/mL)
- MIC [8]: ≥ 64 µM
- MIC [9]: 8 µM (≈ 10.6 µg/mL)
- MIC [10]: 16 µM (≈ 21.2 µg/mL)
- MIC (Escherichia coli 078): 4 µM (≈ 5.31 µg/mL)
SMILES: CC[C@H](C)[C@H](NC(=O)[C@H](CCCN=C(N)N)NC(=O)[C@H](C)NC(=O)[C@H](C)N)C(=O)N[C@H](C(=O)N[C@@H](CC(C)C)C(=O)N[C@@H](CCCN=C(N)N)C(=O)NCC(=O)N[C@@H](CCCN=C(N)N)C(=O)N[C@@H](Cc1ccccc1)C(=O)N[C@@H](CCCN=C(N)N)C(N)=O)[C@@H](C)CC [AARIILRGRFR]

- MIC (Escherichia coli UB1005): 3.39 µM (≈ 7.99 µg/mL)
- MIC [11]: 6.79 µM (≈ 16 µg/mL)
- MIC [12]: 6.79 µM (≈ 16 µg/mL)
- MIC [13]: 3.39 µM (≈ 7.99 µg/mL)
- MIC [14]: 3.39 µM (≈ 7.99 µg/mL)
- MIC [15]: 1.7 µM (≈ 4 µg/mL)
- MIC (Candida albicans C627): 6.79 µM (≈ 16 µg/mL)
- MIC [16]: 1.7 µM (≈ 4 µg/mL)
- MIC (Escherichia coli DC2): 3.39 µM (≈ 7.99 µg/mL)
- MIC [17]: 1.7 µM (≈ 4 µg/mL)
- MIC [18]: 1.7 µM (≈ 4 µg/mL)
- MIC [19]: 3.39 µM (≈ 7.99 µg/mL)
SMILES: CC[C@H](C)[C@H](NC(=O)CNC(=O)[C@H](Cc1cnc[nH]1)NC(=O)[C@H](CC(C)C)NC(=O)CNC(=O)[C@H](CC(C)C)NC(=O)[C@H](CCCCN)NC(=O)[C@H](Cc1ccccc1)NC(=O)[C@H](CC(C)C)NC(=O)[C@H](CCCCN)NC(=O)CNC(=O)[C@H](Cc1c[nH]c2ccccc12)NC(=O)[C@H](Cc1ccccc1)NC(=O)CN)C(=O)NCC(=O)N[C@@H](CC(C)C)C(=O)N[C@@H](CC(C)C)C(=O)N[C@@H](Cc1cnc[nH]1)C(=O)N[C@@H](CC(C)C)C(=O)N[C@@H](Cc1cnc[nH]1)C(=O)N[C@@H](CC(C)C)C(C)=O [GFWGKLFKLGLHGIGLLHLHL]

- MIC (Escherichia coli C600): 6 µM (≈ 15.5 µg/mL)
- MIC [20]: 0.7 µM (≈ 1.81 µg/mL)
- MIC [21]: ≥ 36 µM
SMILES: CC[C@H](C)[C@H](NC(=O)[C@H](C)NC(=O)[C@H](CCCCN)NC(=O)[C@H](CCCN=C(N)N)NC(=O)CNC(=O)[C@H](Cc1ccccc1)NC(=O)[C@H](CCCCN)NC(=O)[C@H](CCCCN)NC(=O)[C@@H](NC(=O)[C@H](CC(C)C)NC(=O)[C@H](CCCCN)NC(=O)CN)[C@@H](C)CC)C(=O)N[C@@H](CO)C(=O)N[C@@H](Cc1ccc(O)cc1)C(=O)N[C@@H](C)C(=O)N[C@H](C(=O)N[C@@H](CCCCN)C(=O)N[C@@H](CCCCN)C(=O)N[C@@H](C)C(=O)N[C@@H](CCCN=C(N)N)C(=O)NCC(=O)N[C@@H](CCCCN)C(=O)N[C@@H](Cc1cnc[nH]1)C(=O)O)C(C)C [GKLIKKFGRKAISYAVKKARGKH]

- MIC [22]: 2.5 µM (≈ 4 µg/mL)
- MIC (Escherichia coli INV-a): 7 µM (≈ 11.2 µg/mL)
SMILES: CC[C@H](C)[C@H](N)C(=O)N[C@@H](CC(N)=O)C(=O)N[C@@H](Cc1c[nH]c2ccccc12)C(=O)N[C@@H](CCCCN)C(=O)NCC(=O)N[C@H](C(=O)N[C@@H](C)C(=O)N[C@@H](CC(C)C)C(=O)N[C@@H](CCSC)C(=O)N[C@@H](C)C(=O)N[C@@H](CCCCN)C(=O)N[C@@H](CCCCN)C(=O)N[C@@H](CC(C)C)C(=O)N[C@@H](CC(C)C)C(N)=O)[C@@H](C)CC [INWKGIALMAKKLL]

- MIC [3]: 19.9 µM (≈ 64.8 µg/mL)
- MIC [23]: ≥ 39.9 µM
- MIC (Pseudomonas aeruginosa): 39.9 µM (≈ 130 µg/mL)
- MIC [24]: 19.9 µM (≈ 64.8 µg/mL)
SMILES: CC(=O)N[C@@H](CCCN=C(N)N)C(=O)N[C@@H](CCCCN)C(=O)N[C@@H](Cc1ccccc1)C(=O)N[C@@H](CC(C)C)C(=O)N[C@@H](CCCN=C(N)N)C(=O)N[C@@H](CCCN=C(N)N)C(=O)N[C@@H](CCCN=C(N)N)C(=O)NCC(=O)N[C@@H](CCC(=O)O)C(=O)N[C@H](C(=O)N[C@@H](C)C(=O)N[C@@H](Cc1cnc[nH]1)C(=O)N[C@@H](Cc1ccccc1)C(=O)N[C@@H](CO)C(=O)N[C@@H](CCC(N)=O)C(=O)N[C@@H](CCCCN)C(=O)N[C@@H](CO)C(=O)N[C@@H](CC(C)C)C(=O)NCC(=O)N[C@@H](CC(C)C)C(=O)N[C@@H](Cc1ccc(O)cc1)C(=O)N[C@@H](CS)C(=O)N[C@@H](Cc1c[nH]c2ccccc12)C(=O)N[C@@H](Cc1c[nH]c2ccccc12)C(=O)N[C@@H](Cc1c[nH]c2ccccc12)C(N)=O)C(C)C [RKFLRRRGEVAHFSQKSLGLYCWWW]

- MIC [25]: 8 µM (≈ 13.2 µg/mL)
- MIC [26]: 4 µM (≈ 6.58 µg/mL)
- MIC [27]: 4 µM (≈ 6.58 µg/mL)
- MIC [28]: 4 µM (≈ 6.58 µg/mL)
- MIC [29]: 4 µM (≈ 6.58 µg/mL)
- MIC [30]: 4 µM (≈ 6.58 µg/mL)
- MIC [31]: 8 µM (≈ 13.2 µg/mL)
- MIC [32]: 8 µM (≈ 13.2 µg/mL)
- MIC [33]: 8 µM (≈ 13.2 µg/mL)
- MIC [34]: 8 µM (≈ 13.2 µg/mL)
- MIC [35]: 8 µM (≈ 13.2 µg/mL)
- MIC [36]: 8 µM (≈ 13.2 µg/mL)
SMILES: CC[C@H](C)[C@H](NC(=O)[C@H](CCCCN)NC(=O)[C@H](Cc1c[nH]c2ccccc12)NC(=O)[C@@H](N)CCCN=C(N)N)C(=O)N[C@@H](Cc1ccccc1)C(=O)N[C@@H](CCCCN)C(=O)N[C@@H](CCCCN)C(=O)N[C@H](C(=O)N[C@H](C(=O)N[C@@H](CCCCN)C(=O)N[C@@H](CCCCN)C(=O)N[C@@H](Cc1c[nH]c2ccccc12)C(N)=O)C(C)C)C(C)C [RWKIFKKVVKKW]
